Source: patent US7897591B2, “Method of treating fatty liver disease” (priority 2005, dated 2011)

Experiments:
C57BL/6 mice = experiment: Serum liver function tests (AP, ALT, total and direct bilirubin) in HCD mouse model; format: in vivo
Procedure: Experiments were performed on 5-6 week-old C57BL/6 mice (Jackson Laboratories, Bar Harbor, Me.). The animals, in groups of five, were housed in a barrier room and were acclimated to their environment for at least 72 hours prior to the initiation of each experiment. Animal protocols complied with the NIH Animal Research Advisory Committee guidelines and were approved by the Children's Hospital Boston Animal Care and Use Committee. Control animals (n=5) received normal chow and water ad libitum. All animals in the experimental groups were fed a fat-free, high carbohydrate liquid diet (HCD) ad libitum placed in one bottle per cage as previously described (3, 62). No additional sources of nutrition or hydration were provided. The HCD liquid solution contained 20% dextrose, a commercial mixture of 2% essential and nonessential amino acids (TrophAmine, B. Braun Medical, Irvine, Calif.), 2 ml trace elements (Trace Elements Injection 4, USP—Pediatric, American Regent Shirley, N.Y.), and 5 ml multivitamins (M.V.I. Pediatric™, Mayne Pharma, Paramus, N.J.). Each liter of HCD contained 30 meq sodium, 20 meq potassium chloride, 15 meq calcium, 10 meq magnesium, and 10 mM phosphate. The bottles were replaced daily with fresh HCD solution. HCD animals (n=5) received HCD only and no additional treatment for 19 days. The HCD+MAR animals (n=15) additionally received 100 mg/kg of Marimastat™ in 0.45% methylcellulose (Sigma-Aldrich Corporation, St. Louis, Mo.) vehicle twice daily via orogastric gavage. The animals were individually weighed every third day and at sacrifice. Mice were anesthetized with 300 μl of 2.5% Avertin (Tribromoethanol, Sigma-Aldrich Corporation, St. Louis, Mo.) by intraperitoneal injection. Approximately 400 μl of blood was collected from each mouse via retro-orbital puncture. The specimens were then placed into serum separator tubes (Becton Dickinson, Franklin Lakes, N.J.), and centrifuged at 4° C. at 8000 rpm for 10 minutes to separate serum. Serum was frozen at −80° C. and delivered to the Clinical Laboratory at Children's Hospital Boston for measurement of aspartate aminotransferase (AST), alanine aminotransferase (ALT), alkaline phosphatase (AP), and total (TB) and direct bilirubin (DB) levels. Furthermore, a fatty acid profile was performed on these samples and TNF-α soluble receptor II levels were determined as described below.

SREBP-1c = experiment: Western blot of liver SREBP-1c; format: in vivo, mouse; settings: across the treatment groups
Procedure: Control animals (n=5) received normal chow and water ad libitum. All animals in the experimental groups were fed a fat-free, high carbohydrate liquid diet (HCD) ad libitum placed in one bottle per cage as previously described (3, 62). No additional sources of nutrition or hydration were provided. The HCD liquid solution contained 20% dextrose, a commercial mixture of 2% essential and nonessential amino acids (TrophAmine, B. Braun Medical, Irvine, Calif.), 2 ml trace elements (Trace Elements Injection 4, USP—Pediatric, American Regent Shirley, N.Y.), and 5 ml multivitamins (M.V.I. Pediatric™, Mayne Pharma, Paramus, N.J.). Each liter of HCD contained 30 meq sodium, 20 meq potassium chloride, 15 meq calcium, 10 meq magnesium, and 10 mM phosphate. The bottles were replaced daily with fresh HCD solution. HCD animals (n=5) received HCD only and no additional treatment for 19 days. The HCD+MAR animals (n=15) additionally received 100 mg/kg of Marimastat™ in 0.45% methylcellulose (Sigma-Aldrich Corporation, St. Louis, Mo.) vehicle twice daily via orogastric gavage. The animals were individually weighed every third day and at sacrifice. […] The assay was read at 595 nm and analyzed with Softmax® PRO Software (Molecular Devices Corporation, Sunnyvale, Calif.). 30 ug of protein per sample were analyzed by SDS-PAGE. […]

CNC(=O)[C@@H](NC(=O)[C@H](CC(C)C)[C@H](O)C(=O)NO)C(C)(C)C [Marimastat]
total bilirubin level (C57BL/6 mice; HCD+MAR group compared to HCD-only group): significantly lower
serum alanine amino transferase (ALT) level (C57BL/6 mice; HCD+MAR group vs HCD-only, P<0.001): lower
serum alkaline phosphatase (AP) level (C57BL/6 mice; HCD+MAR group, P<0.001): significantly lower
direct bilirubin (DB) level (C57BL/6 mice; all 15 mice in HCD+MAR group, P<0.001): 0
SREBP-1c protein level (SREBP-1c): unchanged
